Values quoted from earlier work in patent publication US9403784B1, “Fumarate compounds, pharmaceutical compositions thereof, and methods of use” (priority 2015, dated 2016).

aqueous solubility: poor aqueous solubility
SMILES: COC(=O)/C=C/C(=O)OC [DMF, dimethylfumarate]
